# Data as given in article PMC10224356, “Trisubstituted 1,3,5-Triazines as Histamine H4 Receptor Antagonists with Promising Activity In Vivo” (Molecules, 2023).
# Experiments:
# mice [1] = assay: Formalin test; assay type: in vivo; conditions: for Paw licking/biting, late phase of formalin test, % of the control group: 15–30 min after formalin
# Method: The blockade of H4Rs expressed in inflammatory cells results in anti-inflammatory and analgesic effects. On the contrary, the activation of neuronal H4Rs leads to analgesia.
# The procedure used was essentially the same as that described previously. […] The total time (in s) spent on licking the injected paw during periods of 0–5 min (early phase, neurogenic) and 15–30 min (late phase, inflammatory) was measured and was considered as an indicator of nociceptive behaviour. Before formalin injection different groups of mice were treated i.p. with vehicle (10 mL/kg, negative control) and the dose–response of the investigated compound.
# mice [2] = assay: Chloroquine-induced pruritus; assay type: in vivo
# Source text: When comparing the activity of the tested in both used models, it should be noted that the efficacy (higher maximal effect) and potency (lower doses needed to obtain the same result) of the compound were better in histamine-induced pruritus. Nevertheless, compound 6 was also active in histamine-independent itch, which contrasts with the activity of pyrilamine representing a commonly used drug in the treatment of pruritus. […] The wide spectrum of antipruritic activity of compound 6 is very promising, considering that histamine-independent itch is still a crucial clinical problem in pruritus treatment.
# The surface (around 2 cm^2) of the mice’s nape was shaved at least 2 days prior to experiments. On the day of the experiment, mice were individually placed in plastic chambers (15 × 15 × 30 cm) and after the 30 min habituation period, they were given an intradermal (i.d.) injection of histamine dihydrochloride (10 µmol/site) or chloroquine (CQ, 200 µg/site), which were dissolved in physiological saline and administrated in the constant volume of 20 μL. Immediately after the injection, scratching (series of movements considered as a single scratching bout) of the injected site by the hind paw was counted for 60 min or 30 min after histamine and CQ administration, respectively. Before pruritogens injection different groups of mice were treated i.p. with vehicle (10 mL/kg, negative control) or the dose–response of investigated compound.
# Figure 9 The effect of compound 6 and reference compound pyrilamine (Pyr) on the number of scratching bouts during 60 min-long observation in histamine-induced pruritus (A) and 30 min-long observation in chloroquine-induced pruritus (B). The tested compound or vehicle (1% solution of Tween 80) was administered intraperitoneally (i.p.) 30 min before the intradermal (i.d.) injection of histamine or chloroquine. The results are presented as bar plots showing the mean ± SEM. Statistical analysis: one-way ANOVA followed by Dunnett’s post hoc test, * p < 0.05, ** p < 0.01, *** p < 0.001, n = 8–10 mice per group.
# hH4R = hH4R (Homo sapiens, UniProt Q9H3N8); assay: cAMP accumulation assay (LANCE Ultra cAMP, CHO-K1 cells stably expressing hH4R); assay type: cell-based; set-up: expressed in transfected cells; conditions: antagonist mode
# hH4R, sequence (Q9H3N8 whole entry): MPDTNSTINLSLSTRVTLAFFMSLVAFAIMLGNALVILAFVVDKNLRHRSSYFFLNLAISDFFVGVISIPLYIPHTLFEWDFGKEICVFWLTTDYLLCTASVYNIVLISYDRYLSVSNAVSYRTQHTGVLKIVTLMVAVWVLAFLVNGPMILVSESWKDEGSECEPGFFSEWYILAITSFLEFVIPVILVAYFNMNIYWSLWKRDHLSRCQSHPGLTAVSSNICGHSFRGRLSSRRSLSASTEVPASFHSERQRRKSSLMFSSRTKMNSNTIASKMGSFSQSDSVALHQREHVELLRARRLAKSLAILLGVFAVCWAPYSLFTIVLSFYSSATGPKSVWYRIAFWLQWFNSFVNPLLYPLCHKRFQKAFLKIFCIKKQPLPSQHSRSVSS
smiles,measurement,setting,value
"CN1CCN(c2nc(N)nc(CC3CCCC3)n2)CC1 [Compound 6, 4-(Cyclopentylmethyl)-6-(4-methylpiperazin-1-yl)-1,3,5-triazin-2-amine]","Paw licking/biting, late phase of formalin test, % of the control group",mice [1]; 50 mg/kg i.p.,44.02 % of the control group
same,"Paw licking/biting, late phase of formalin test, % of the control group",mice [1]; 75 mg/kg i.p.,56.62 % of the control group
same,"Duration of nociceptive response, acute phase of formalin test","mice [1]; i.p., 0–5 min after formalin",did not significantly affect
same,"Scratch bouts, chloroquine-induced pruritus, % of the control value","mice [2]; 50 mg/kg i.p., 30 min observation",25.12 % of the control value
same,"Number of scratch bouts, chloroquine-induced pruritus","mice [2]; 50 mg/kg i.p., 30 min observation (control 72.20 ± 11.59)",18.14 ± 3.48 scratch bouts
same,"Effect on number of scratch bouts, chloroquine-induced pruritus",mice [2]; doses 25 mg/kg and 50 mg/kg i.p.,significantly decreased the number of scratch bouts
same,"Effect on number of scratch bouts, chloroquine-induced pruritus",mice [2]; doses of 6.25 mg/kg and 12.5 mg/kg i.p.,not statistically significant
same,cAMP hH4R % of max. Antagonist Activity at 10 µM,hH4R,100%
